Source: patent publication US12564644B2, “Cyclodextrin complexes of specialized proresolving mediators” (THETIS PHARMACEUTICALS LLC, priority 2022, dated 2026)

Assays:
[1] = Solid-state chemical stability by HPLC, 16 weeks accelerated conditions (Example 8); type: physicochemical; details: 40° C., 75% relative humidity, exposed to air
[2] = Solid-state physical stability, visual, ambient conditions 168 hours (Example 11); type: physicochemical; details: open test tubes, 18-22° C., relative humidity 52% to 72%
Protocol: The solid-state physical stability of […] alone (“RvE1 Control”) […]-cyclodextrin complex (“RvE1 Complex”) was evaluated (FIG. 24A-D). Samples of the test articles as solids were placed in open test tubes under ambient conditions over a period of 168 hours, at temperature between 18-22° C. and relative humidity between 52% and 72%. The solid-state physical stability was assessed visually based on whether the substance retained its form as a solid powder or transitioned to a liquid form.

[3] = Oral pharmacokinetics, RvE1 in blood plasma after single oral gavage (Example 12); type: in vivo; details: mice
Protocol: To establish the comparative oral pharmacokinetics (“PK”) of RvE1 MgLys alone (“RvE1 Control”) and RvE1 MgLys complexed with gamma-cyclodextrin (“RvE1 Complex”), a study was conducted to investigate RvE1 exposure in blood plasma following a single dose of RvE1 Control or RvE1 Complex administered via oral gavage at various timepoints up to 8 hours of 4 mg/kg of RvE1. Quantitative measurement of RvE1 in blood plasma was determined by HPLC-MS/MS performed on a Halo Guard column (Halo C18 4.6×150 mm, 2.7 μm), mounted on an Agilent HPLC system equipped with a UV detector (272 nm detection).
Sixty five (65) male C57B16 mice were randomized into 3 experimental groups at 8 weeks of age: baseline control (“Baseline”, n=5), RvE1 Control (n=30) and the RvE1 Complex (n=30). Prior to administration of test article, the mice in the Baseline group were sacrificed and blood was drawn to establish the endogenous levels of RvE1 in plasma. The 60 remaining mice received a single dose of RvE1 Control or RvE1 Complex. Five (5) mice in each group were sacrificed at each of the following timepoints to enable the determination of an RvE1 concentration-versus-time curve: 15 minutes, 30 minutes, 1, 2—, 4- and 8-hours post-dose. At the time of sacrifice blood was drawn into EDTA-treated tubes and immediately frozen.

[4] = Long-term solid-state chemical stability by HPLC, 24 weeks accelerated conditions (Example 9); type: physicochemical; details: for RvE1 Area % (error +/− 1%) Baseline: 40° C., 75% relative humidity, exposed to air; for % Change at Week 24 vs Baseline (degradation rate) / RvE1 Area % (error +/− 1%) Week 8 / RvE1 Area % (error +/− 1%) Week 16 / RvE1 Area % (error +/− 1%) Week 24: accelerated conditions
Protocol: The stability of RvE1-MgLys alone (“RvE1 Control”) and complexed with cyclodextrins (“RvE1 CD Complexes”) was evaluated. Samples of the test articles were placed in open test tubes and maintained at 40° C. and 75% relative humidity, exposed to air, for 16 weeks. […] Briefly, HPLC analysis was performed on a Halo Guard column (Halo C18 4.6×150 mm, 2.7 μm), mounted on an Agilent HPLC system equipped with a UV detector (272 nm detection). The mobile phase consisted of a gradient between solution A, water, and solution B, methanol, both containing 100 mM of ammonium formate at pH 4.0. The gradient program was 95-0% with respect to solution A and 5-100% with respect to solution B. The flow rate was 0.9 mL/min over 50 minutes. Lack of stability was indicated by a reduction in the area percent purity (area %) of the single major peak of RvE1 (retention time of 31.3 minutes) and the appearance of new HPLC peaks or an increase in the area % of pre-existing impurities. All HPLC measurements of RvE1 purity and degradant levels were calculated based on area percent relative to the detectable components of the molecule including isomers and epimers of RvE1, impurities and degradants induced by the test conditions.
A study of the chemical stability of both RvE1-Mg-Lys alone and sodium RvE1 (“Na-RvE1”) alone and complexed with cyclodextrins was evaluated over 24 weeks. Samples of the test articles as solids were placed in open test tubes and maintained at 40° C. and 75% relative humidity, exposed to air.

[5] = Chemical stability in solution (deionized water) by HPLC, 16 weeks accelerated conditions (Example 10); type: physicochemical; details: for RvE1 Area % Baseline: 2 mg/ml of RvE1, 40° C., 75% relative humidity, exposed to air; for % Change at Week 16 vs Baseline / RvE1 Area % Week 8 / RvE1 Area % Week 16: 2 mg/ml of RvE1, accelerated conditions
Protocol: The stability of […] alone (“RvE1 Control”) and complexed with cyclodextrins (“RvE1 CD Complexes”) was evaluated. Samples of the test articles were placed in open test tubes and maintained at 40° C. and 75% relative humidity, exposed to air, for 16 weeks. […] Briefly, HPLC analysis was performed on a Halo Guard column (Halo C18 4.6×150 mm, 2.7 μm), mounted on an Agilent HPLC system equipped with a UV detector (272 nm detection). The mobile phase consisted of a gradient between solution A, water, and solution B, methanol, both containing 100 mM of ammonium formate at pH 4.0. The gradient program was 95-0% with respect to solution A and 5-100% with respect to solution B. The flow rate was 0.9 mL/min over 50 minutes. Lack of stability was indicated by a reduction in the area percent purity (area %) of the single major peak of RvE1 (retention time of 31.3 minutes) and the appearance of new HPLC peaks or an increase in the area % of pre-existing impurities. All HPLC measurements of RvE1 purity and degradant levels were calculated based on area percent relative to the detectable components of the molecule including isomers and epimers of RvE1, impurities and degradants induced by the test conditions. The chemical stability of […] or Na-RvE1 alone and complexed with cyclodextrins in solution was evaluated. Samples of the test articles dissolved in deionized water at a concentration of 2 mg/ml of RvE1 were placed in open test tubes and maintained at 40° C. and 75% relative humidity, exposed to air, over a period of 16 weeks.

[6] = Solid-state chemical stability by HPLC, 16 weeks accelerated conditions (Example 8); type: physicochemical
Protocol: The stability of […] alone (“RvE1 Control”) and complexed with cyclodextrins (“RvE1 CD Complexes”) was evaluated. Samples of the test articles were placed in open test tubes and maintained at 40° C. and 75% relative humidity, exposed to air, for 16 weeks. […] Briefly, HPLC analysis was performed on a Halo Guard column (Halo C18 4.6×150 mm, 2.7 μm), mounted on an Agilent HPLC system equipped with a UV detector (272 nm detection). The mobile phase consisted of a gradient between solution A, water, and solution B, methanol, both containing 100 mM of ammonium formate at pH 4.0. The gradient program was 95-0% with respect to solution A and 5-100% with respect to solution B. The flow rate was 0.9 mL/min over 50 minutes. Lack of stability was indicated by a reduction in the area percent purity (area %) of the single major peak of RvE1 (retention time of 31.3 minutes) and the appearance of new HPLC peaks or an increase in the area % of pre-existing impurities. All HPLC measurements of RvE1 purity and degradant levels were calculated based on area percent relative to the detectable components of the molecule including isomers and epimers of RvE1, impurities and degradants induced by the test conditions.

[7] = accelerated conditions, baseline
[8] = accelerated conditions, week 16

CC[C@@H](O)/C=C/C=C\C[C@@H](O)/C=C/C=C/C=C\[C@@H](O)CCCC(=O)O.CC[C@@H](O)/C=C/C=C\C[C@@H](O)/C=C/C=C/C=C\[C@@H](O)CCCC(=O)O.NCCCC[C@H](N)C(=O)[O-].NCCCC[C@H](N)C(=O)[O-].[Mg+2] [RvE1 Control, RvE1 magnesium dilysinate]
RvE1 Area % Week 16 ([1]; week 16, listed as RvE1-MgLys): 80.7% | RvE1 Area % Baseline ([1]; open test tubes, baseline, listed as RvE1-MgLys): 94.0% | physical form, visual ([2]; 24 and 168 hours): gel-like substance | physical form, visual ([2]; 8 hours): began to agglomerate and turn a darker color | physical form, visual ([2]; 8 hours, listed as RvE1-Control): remained in powder form | physical form, visual ([2]; baseline): powder form | AUC (0 to 8 hrs) ([3]; 4 mg/kg of RvE1): 15.2 ng·h/mL | Cmax ([3]; 4 mg/kg of RvE1): 45.5 ng/mL | Tmax ([3]; 4 mg/kg of RvE1): 15 min | RvE1 plasma concentration 15 min ([3]; 4 mg/kg of RvE1, 15 min): 45.5 ng/mL | RvE1 plasma concentration 30 min ([3]; 4 mg/kg of RvE1, 30 min): 6.3 ng/mL | RvE1 plasma concentration 1 hr ([3]; 4 mg/kg of RvE1, 1 hr): 1.2 ng/mL | RvE1 plasma concentration 2 hr ([3]; 4 mg/kg of RvE1, 2 hr): 0.2 ng/mL | RvE1 plasma concentration 4 hr ([3]; 4 mg/kg of RvE1, 4 hr): 0.3 ng/mL | RvE1 plasma concentration 8 hr ([3]; 4 mg/kg of RvE1, 8 hr): 0.1 ng/mL | RvE1 Area % (error +/− 1%) Baseline ([4]; listed as RvE1 Mg-Lys): 94.8% | RvE1 Area % (error +/− 1%) Baseline ([4]; listed as RvE1 MgLys control): 94.8% | % Change at Week 24 vs Baseline (degradation rate) ([4]; listed as RvE1-MgLys control): 16.6% | % Change at Week 24 vs Baseline (degradation rate) ([4]; listed as RvE1 Mg-Lys): 16.6% | RvE1 Area % (error +/− 1%) Week 8 [4]: 88.4% | RvE1 Area % (error +/− 1%) Week 16 [4]: 82.3% | RvE1 Area % (error +/− 1%) Week 24 ([4]; week 24, listed as RvE1-MgLys Control): 79.1% | RvE1 Area % (error +/− 1%) Week 24 ([4]; week 24, listed as RvE1 Mg-Lys): 79.1% | RvE1 Area % Baseline [5]: 94.8% | % Change at Week 16 vs Baseline [5]: 45.7% | RvE1 Area % Week 8 [5]: 84.3% | RvE1 Area % Week 16 ([5]; week 16, listed as RvE1-MgLys Control): 51.5% | RvE1 Area % Week 16 ([5]; week 16, listed as RvE1 Mg-Lys): 51.5% | % Change at Week 16 vs Baseline (degradation rate) ([6]; 40° C., 75% relative humidity, exposed to air): 14.1% | RvE1 Area % Week 8 ([6]; 40° C., 75% relative humidity, exposed to air, week 8): 86.7% | RvE1 Area % Week 16 ([6]; 40° C., 75% relative humidity, exposed to air, week 16): 80.7% | # of Deg. Peaks ≥0.20% Baseline [6, 7]: 6 | # of Deg. Peaks ≥1.00% Baseline [6, 7]: 2 | # of Deg. Peaks ≥0.20% Week 8 ([6]; accelerated conditions, week 8): 19 | # of Deg. Peaks ≥1.00% Week 8 ([6]; accelerated conditions, week 8): 4 | # of Deg. Peaks ≥0.20% Week 16 [6, 8]: 19 | # of Deg. Peaks ≥1.00% Week 16 [6, 8]: 8 | RvE1 Area % Baseline ([6]; open test tubes, 40° C., 75% relative humidity, exposed to air, baseline): 94%

CC[C@@H](O)/C=C/C=C/C[C@@H](O)/C=C/C=C/C=C/[C@@H](O)CCCC(=O)[O-].[Na+] [Na-RvE1, sodium RvE1]
RvE1 Area % (error +/− 1%) Baseline [4]: 96.2% | RvE1 Area % (error +/− 1%) Baseline ([4]; listed as Na-RvE1 control): 96.2% | % Change at Week 24 vs Baseline (degradation rate) [4]: 100.0% | % Change at Week 24 vs Baseline (degradation rate) ([4]; listed as Na-RvE1 control): 100% | RvE1 Area % (error +/− 1%) Week 8 [4]: 78.0% | RvE1 Area % (error +/− 1%) Week 16 [4]: 49.8% | RvE1 Area % (error +/− 1%) Week 24 ([4]; week 24): 0.0% | RvE1 Area % (error +/− 1%) Week 24 ([4]; week 24, listed as Na-RvE1 Control): 0% | RvE1 Area % Baseline [5]: 96.2% | % Change at Week 16 vs Baseline [5]: 80.7% | RvE1 Area % Week 8 [5]: 36.0% | RvE1 Area % Week 16 ([5]; week 16): 18.6% | RvE1 Area % Week 16 ([5]; week 16, listed as Na-RvE1 Control): 18.6%
